The results in this text go back to BindingDB's records for patent US11566007 (Revolution Medicines, 2023).

Some targets named below: GTPase NRas [G12C] (Homo sapiens, UniProt P01111, G12C); GTPase NRas (Homo sapiens, UniProt P01111); GTPase NRas [Q61R] (Homo sapiens, UniProt P01111, Q61R); GTPase NRas [Q61K] (Homo sapiens, UniProt P01111, Q61K).
Holding throughout (assay): Biochemical Assay
A further assay deals with GTPase KRas [G12C] (Homo sapiens, UniProt P01116, G12C). An excerpt: (§1) The purpose of this biochemical assay is to measure the ability of test compounds to covalently label nucleotide-loaded K-Ras isoforms. […] Analysis of raw data may be carried out using Waters MassLynx MS software, with % bound calculated from the deconvoluted protein peaks for labeled and unlabeled K-Ras.

A further assay has as its target GTPase KRas [Q61H] (Homo sapiens, UniProt P01116, Q61H).
Source text: as §1

The target in the next assay is GTPase KRas (Homo sapiens, UniProt P01116).
Source text: as §1

The target of the next assay is GTPase KRas [G12S] (Homo sapiens, UniProt P01116, G12S).
Source text: as §1

The target of the next assay is GTPase KRas [G13C] (Homo sapiens, UniProt P01116, G13C).
Source text: as §1

Sequence of GTPase KRas [G12C] (P01116 whole entry G12C, canonical isoform): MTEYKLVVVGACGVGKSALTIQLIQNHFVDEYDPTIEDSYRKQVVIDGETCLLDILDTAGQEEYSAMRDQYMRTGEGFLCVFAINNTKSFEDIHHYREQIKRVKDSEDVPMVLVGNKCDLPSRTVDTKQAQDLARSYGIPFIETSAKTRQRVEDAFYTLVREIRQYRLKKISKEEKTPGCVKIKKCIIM
Sequence of GTPase KRas [G13C] (P01116 whole entry G13C): as the sequence (P01116 whole entry G12C, canonical isoform) above, with C12G, G13C counted along it
Sequence of GTPase NRas [G12C] (P01111 whole entry G12C): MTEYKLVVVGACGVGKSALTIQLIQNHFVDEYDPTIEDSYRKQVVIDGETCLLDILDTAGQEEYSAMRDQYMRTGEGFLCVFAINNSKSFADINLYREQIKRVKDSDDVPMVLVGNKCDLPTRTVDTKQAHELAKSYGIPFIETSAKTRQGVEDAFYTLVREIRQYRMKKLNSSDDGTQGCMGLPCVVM
Sequence of GTPase NRas (P01111 whole entry): as the sequence (P01111 whole entry G12C) above, with C12G counted along it
Sequence of GTPase KRas (P01116 whole entry): as the sequence (P01116 whole entry G12C, canonical isoform) above, with C12G counted along it
Sequence of GTPase NRas [Q61R] (P01111 whole entry Q61R): as the sequence (P01111 whole entry G12C) above, with C12G, Q61R counted along it
Sequence of GTPase NRas [Q61K] (P01111 whole entry Q61K): as the sequence (P01111 whole entry G12C) above, with C12G, Q61K counted along it
Sequence of GTPase KRas [G12S] (P01116 whole entry G12S): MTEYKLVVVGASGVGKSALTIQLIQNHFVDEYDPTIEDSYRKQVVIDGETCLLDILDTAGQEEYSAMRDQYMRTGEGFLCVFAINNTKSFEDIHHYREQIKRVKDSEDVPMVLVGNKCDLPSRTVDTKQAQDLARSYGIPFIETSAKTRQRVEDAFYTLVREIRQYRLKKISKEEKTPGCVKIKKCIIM
Sequence of GTPase KRas [Q61H] (P01116 whole entry Q61H): as the sequence (P01116 whole entry G12C, canonical isoform) above, with C12G, Q61H counted along it

The term IC50 denotes the midpoint of a concentration-inhibition curve. Low values mean greater potency, high ones weaker potency. In the case of `C=CC(=O)N1CC[C@H](C(=O)N(C)[C@H](C(=O)N[C@H]2Cc3cc(O)cc(c3)-c3ccc4c(c3)c(c(-c3cccnc3COC)n4CC)CC(C)(C)COC(=O)[C@@H]3CCCN(N3)C2=O)C(C)C)C1` [US11566007, Example A16], the values for the IC50 entry against GTPase KRas [G12C], against GTPase KRas [Q61H] and against GTPase NRas [G12C] were “in the range around 55 nM”, “in the range around 550 nM” and “in the range around 55 nM”, respectively.
Consider `C=CC(=O)N1CC[C@H](C(=O)N(C)[C@H](C(=O)N[C@H]2Cc3cc(O)cc(c3)-c3ccc4c(c3)c(c(-c3ccccc3[C@H](C)OC)n4CC)CC(C)(C)COC(=O)[C@@H]3CCCN(N3)C2=O)C(C)C)C1` [US11566007, Example A22], for which the IC50 entry is “in the range around 55 nM” against GTPase KRas [Q61H] and “in the range around 0.55 µM” on GTPase NRas.
Take `C=CC(=O)N1CC[C@H](C(=O)N(C)[C@H](C(=O)N[C@H]2Cc3cc(O)cc(c3)-c3ccc4c(c3)c(c(-c3ccccc3)n4CC)CC(C)(C)COC(=O)[C@@H]3CCCN(N3)C2=O)C(C)C)C1` [US11566007, Example A23]: the results for the IC50 result against GTPase KRas [G12C] and against GTPase NRas were “in the range around 550 nM” and above 10 µM, respectively.
On to `C=CC(=O)N1CC[C@H](C(=O)N(C)[C@H](C(=O)N[C@H]2Cc3cccc(c3)-c3ccc4c(c3)c(c(-c3ccccc3CCOC)n4CC)CC(C)(C)COC(=O)[C@@H]3CCCN(N3)C2=O)C(C)C)C1` [US11566007, Example A24], for which the concentration for half-maximal inhibition (IC50) result against GTPase NRas [G12C] is “in the range around 5500 nM”.
Take `C=CC(=O)N1CC[C@H](C(=O)N(C)[C@H](C(=O)N[C@H]2Cc3cc(O)cc(c3)-c3ccc4c(c3)c(c(-c3c(F)cccc3CCOC)n4CC)CC(C)(C)COC(=O)[C@@H]3CCCN(N3)C2=O)C(C)C)C1` [US11566007, Example A25]: the figures for the IC50 result against GTPase KRas [G12C], against GTPase NRas [Q61R] and against GTPase NRas were “in the range around 550 nM”, above 10 µM and “in the range around 5.5 µM”, respectively.
`C=CC(=O)N1CC[C@H](C(=O)N(C)[C@H](C(=O)N[C@H]2Cc3cc(O)cc(c3)-c3ccc4c(c3)c(c(-c3ccccc3N3CCOCC3)n4CC)CC(C)(C)COC(=O)[C@@H]3CCCN(N3)C2=O)C(C)C)C1` [US11566007, Example A26]: the IC50 result is “in the range around 550 nM” at GTPase KRas [G12C] and above 10 µM against GTPase NRas [Q61R].
Regarding `C=CC(=O)N1CC[C@H](C(=O)N(C)[C@H](C(=O)N[C@H]2Cc3cc(O)cc(c3)-c3ccc4c(c3)c(c(-c3ccccc3COC)n4CC)CC(C)(C)COC(=O)[C@@H]3CCCN(N3)C2=O)C2CCCC2)C1` [US11566007, Example A27], the IC50 result against GTPase KRas is “in the range around 5.5 µM”; at GTPase KRas [G12C], “in the range around 55 nM”.
As to `CCn1c(-c2ccccc2CCOC)c2c3cc(ccc31)-c1cc(O)cc(c1)C[C@H](NC(=O)[C@H](C(C)C)N(C)C(=O)[C@H]1CCN(C(=O)C#CCN(C)C)C1)C(=O)N1CCC[C@H](N1)C(=O)OCC(C)(C)C2` [US11566007, Example A38], the IC50 is 1000 to 10000 nM against GTPase KRas [G12S] and below 10 nM against GTPase NRas [G12C].
With `C=CC(=O)N1CC[C@H](C(=O)N(C)[C@H](C(=O)N[C@H]2Cc3cc(O)cc(c3)-c3ccc4c(c3)c(c(-c3cccnc3)n4CC)CC(C)(C)COC(=O)[C@@H]3CCCN(N3)C2=O)C(C)C)C1` [US11566007, Example A45], the results for the IC50 against GTPase NRas [Q61R] and against GTPase NRas were above 10 µM and “in the range around 5.5 µM”, respectively.
For the compound `C=CC(=O)N1CC[C@H](C(=O)N(C)[C@H](C(=O)N[C@H]2Cc3cc(O)cc(c3)-c3ccc4c(c3)c(c(-c3ccc5c(c3)OCCN5C)n4CC)CC(C)(C)COC(=O)[C@@H]3CCCN(N3)C2=O)C(C)C)C1` [US11566007, Example A50], the IC50 result on GTPase KRas [G12C] was “in the range around 550 nM”; against GTPase NRas [Q61R] it was above 10 µM.
Consider `C=CC(=O)N1CC[C@H](C(=O)N(C)[C@H](C(=O)N[C@H]2Cc3cc(O)cc(c3)-c3cc(F)c4c(c3)c(c(-c3ccccc3CCOC)n4CC)CC(C)(C)COC(=O)[C@@H]3CCCN(N3)C2=O)C(C)C)C1` [US11566007, Example A53], for which the values for the half-maximal inhibitory concentration (IC50) entry against GTPase KRas [G12C] and against GTPase NRas [Q61K] were “in the range around 550 nM” and above 10 µM, respectively.
For `C=CC(=O)N1CC[C@H](C(=O)N(C)[C@H](C(=O)N[C@H]2Cc3cc(O)cc(c3)-c3ccc4c(c3)c(c(-c3cccnc3N3CC(OC)C3)n4CC)CC(C)(C)COC(=O)[C@@H]3CCCN(N3)C2=O)C(C)C)C1` [US11566007, Example A60], the half-maximal inhibitory concentration (IC50) result against GTPase KRas [G12C] was “in the range around 550 nM”; on GTPase NRas [Q61R], above 10 µM.
With `C=CC(=O)N1CC[C@H](C(=O)N(C)[C@H](C(=O)N[C@H]2Cc3cc(O)cc(c3)-c3ccc4c(c3)c(c(-c3cncnc3)n4CC)CC(C)(C)COC(=O)[C@@H]3CCCN(N3)C2=O)C(C)C)C1` [US11566007, Example A61], the IC50 entry was “in the range around 550 nM” against GTPase KRas [G12C], above 10 µM at GTPase NRas [Q61R] and “in the range around 5.5 µM” on GTPase NRas [Q61K].
For the compound `C=CC(=O)N1CC[C@H](C(=O)N(C)[C@H](C(=O)N[C@H]2Cc3cc(O)cc(c3)-c3ccc4c(c3)c(c(C3=C(COC)CCCC3)n4CC)CC(C)(C)COC(=O)[C@@H]3CCCN(N3)C2=O)C(C)C)C1` [US11566007, Example A64], the 50% inhibitory concentration (IC50) result against GTPase KRas [G13C] is “in the range around 5.5 µM”; on GTPase KRas [G12C], “in the range around 55 nM”; at GTPase NRas [Q61R], “in the range around 5.5 µM”.
Consider `C=CC(=O)N1CC[C@H](C(=O)N(C)[C@H](C(=O)N[C@H]2Cc3cc(O)cc(c3)-c3ccc4c(c3)c(c(-c3cnccc3C)n4CC)CC(C)(C)COC(=O)[C@@H]3CCCN(N3)C2=O)C(C)C)C1` [US11566007, Example A77], for which the half-maximal inhibitory concentration (IC50) result at GTPase KRas is “in the range around 0.55 µM”.
As to `C=CC(=O)N1CC[C@H](C(=O)N(C)[C@H](C(=O)N[C@H]2Cc3cc(O)cc(c3)-c3ccc4c(c3)c(c(-c3c(CCOC)cccc3OC)n4CC)CC(C)(C)COC(=O)[C@@H]3CCCN(N3)C2=O)C(C)C)C1` [US11566007, Example A80], the figures for the IC50 entry against GTPase KRas [G12C] and against GTPase NRas [Q61R] were “in the range around 550 nM” and above 10 µM, respectively.
Consider `C=CC(=O)N1CC[C@H](C(=O)N(C)[C@H](C(=O)N[C@H]2Cc3cc(O)cc(c3)-c3ccc4c(c3)c(c(-c3cncc(COC)c3)n4CC)CC(C)(C)COC(=O)[C@@H]3CCCN(N3)C2=O)C(C)C)C1` [US11566007, Example A83], for which the IC50 result against GTPase KRas is “in the range around 5.5 µM”; against GTPase KRas [G12C], “in the range around 55 nM”; against GTPase NRas, “in the range around 5.5 µM”.
For the compound `C=CC(=O)N1CC[C@H](C(=O)N(C)[C@H](C(=O)N[C@H]2Cc3cc(O)cc(c3)-c3ccc4c(c3)c(c(-c3ncccc3COC)n4CC)CC(C)(C)COC(=O)[C@@H]3CCCN(N3)C2=O)C(C)C)C1` [US11566007, Example A84], on GTPase NRas [Q61K], the 50% inhibitory concentration (IC50) was above 10 µM.
The compound `C=CC(=O)N1CC[C@H](C(=O)N(C)[C@H](C(=O)N[C@H]2Cc3cc(O)cc(c3)-c3ccc4c(c3)c(c(-c3nccnc3COC)n4CC)CC(C)(C)COC(=O)[C@@H]3CCCN(N3)C2=O)C(C)C)C1` [US11566007, Example A85] showed an IC50 at GTPase NRas above 10 µM.
Regarding `CCn1c(-c2cnccc2COC)c2c3cc(ccc31)-c1cc(O)cc(c1)C[C@H](NC(=O)[C@H](C(C)C)N(C)C(=O)[C@H]1CCN(C(=O)C#CCN(C)C)C1)C(=O)N1CCC[C@H](N1)C(=O)OCC(C)(C)C2` [US11566007, Example A88], on GTPase NRas [G12C], the IC50 was below 10 nM.
Take `C=CC(=O)N1CC[C@H](C(=O)N(C)[C@H](C(=O)N[C@H]2Cc3nc(cs3)-c3ccc4c(c3)c(c(-c3cccnc3COC)n4CC)CC(C)(C)COC(=O)[C@@H]3CCCN(N3)C2=O)C(C)C)C1` [US11566007, Example A94]: the IC50 result against GTPase KRas [G12C] and on GTPase NRas [G12C] was “in the range around 550 nM” throughout.
As to `CCn1c(-c2cccnc2COC)c2c3cc(ccc31)-c1cc(O)cc(c1)C[C@H](NC(=O)[C@H](C(C)C)N(C)C(=O)[C@H]1CCN(C(=O)C#CCN3CCOCC3)C1)C(=O)N1CCC[C@H](N1)C(=O)OCC(C)(C)C2` [US11566007, Example A95], the IC50 at GTPase KRas [G12C] and against GTPase NRas [G12C] was below 10 nM in each case.
As for `CCn1c(-c2cccnc2COC)c2c3cc(ccc31)-c1cc(O)cc(c1)C[C@H](NC(=O)[C@H](C(C)C)N(C)C(=O)[C@H]1CCN(C(=O)C#CCN(C)C)C1)C(=O)N1CCC[C@H](N1)C(=O)OCC(C)(C)C2` [US11566007, Example A96], the IC50 was 100 to 1000 nM on GTPase KRas [G12S], below 0.01 µM against GTPase KRas [G13C] and below 10 nM on GTPase NRas [G12C].
Consider `CCn1c(-c2cccnc2[C@H](C)OC)c2c3cc(ccc31)-c1cc(O)cc(c1)C[C@H](NC(=O)[C@H](C(C)C)N(C)C(=O)c1nc(NC(=O)/C=C/CN(C)C)cs1)C(=O)N1CCC[C@H](N1)C(=O)OCC(C)(C)C2` [US11566007, Example A258], for which the IC50 entry at GTPase KRas [G12C] and on GTPase NRas [G12C] was “in the range around 550 nM” each time.
As for `C=CC(=O)N1CC[C@H](C(=O)N(C)[C@H](C(=O)NC2C[C@@H]3CN(CCO3)c3ccc4c(c3)c(c(-c3cccnc3COC)n4CC)CC(C)(C)COC(=O)[C@@H]3CCCN(N3)C2=O)C(C)C)C1` (stereo partly drawn) [US11566007, Example A318], the IC50 against GTPase NRas [G12C] is above 10000 nM.
For the compound `C=CC(=O)N1CC[C@H](C(=O)N(C)[C@H](C(=O)N[C@H]2CC3=NN=C(O3)c3ccc4c(c3)c(c(-c3cccnc3[C@H](C)OCC)n4CC(F)(F)F)CC(C)(C)COC(=O)[C@@H]3CCCN(N3)C2=O)C(C)C)C1` [US11566007, Example A424], the IC50 result was “in the range around 5.5 µM” on GTPase KRas [G13C], “in the range around 550 nM” at GTPase KRas [G12C] and “in the range around 550 nM” against GTPase NRas [G12C].
